Measured values as given in ChEMBL document CHEMBL1201861, “Genomics of Drug Sensitity in Cancer screening data, Wellcome Trust Sanger Institute”.
pIC50: −log10 of the molar value.

How the values were obtained:
Assay type in all cases: functional, cell-based
EB2 = assay: cells; settings: Homo sapiens;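 note: growth inhibition of EB2 cells, read out with a cell viability assay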
Description: SANGER: Inhibition of human EB2 cell growth in a cell viability assay.

LC-1F = assay: cells; settings: Homo sapiens;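 note: growth inhibition of human LC-1F cells, read out with a cell viability assay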
Description: SANGER: Inhibition of human LC-1F cell growth in a cell viability assay.

LC4-1 = assay: cells; settings: Homo sapiens;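 note: growth inhibition of LC4-1 cells, read out with a cell viability assay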
Description: SANGER: Inhibition of human LC4-1 cell growth in a cell viability assay.

MONO-MAC-6 = assay: cells; settings: Homo sapiens;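 note: cell viability assay measuring growth inhibition of human MONO-MAC-6 cells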
Description: SANGER: Inhibition of human MONO-MAC-6 cell growth in a cell viability assay.

NB1 = assay: cells; settings: Homo sapiens;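 note: reduction of NB1 cell proliferation, read out with a viability assay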
Description: SANGER: Inhibition of human NB1 cell growth in a cell viability assay.

NCCIT = assay: SANGER: Inhibition of human NCCIT cell growth in a cell viability assay.
NCI-H128 = assay: SANGER: Inhibition of human NCI-H128 cell growth in a cell viability assay.
NCI-H187 = assay: cells; settings: Homo sapiens;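 note: growth inhibition of NCI-H187 cells, read out as cell viability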
Description: SANGER: Inhibition of human NCI-H187 cell growth in a cell viability assay.

NCI-H1963 = assay: cells; settings: Homo sapiens;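 note: cell growth inhibition of the human line, determined with a cell viability assay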
Description: SANGER: Inhibition of human NCI-H1963 cell growth in a cell viability assay.

NCI-H2107 = assay: SANGER: Inhibition of human NCI-H2107 cell growth in a cell viability assay.
NCI-H2171 = assay: cells; settings: Homo sapiens;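 note: growth inhibition of human NCI-H2171 cells, read out by a cell viability assay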
Description: SANGER: Inhibition of human NCI-H2171 cell growth in a cell viability assay.

NCI-H2196 = assay: cells; settings: Homo sapiens;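 note: cell viability assay used as the readout of growth inhibition in NCI-H2196 cells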
Description: SANGER: Inhibition of human NCI-H2196 cell growth in a cell viability assay.

NCI-H322M = assay: cells; settings: Homo sapiens;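 note: cell viability assay measuring inhibition of growth of human NCI-H322M cells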
Description: SANGER: Inhibition of human NCI-H322M cell growth in a cell viability assay.

NCI-H716 = assay: cells; settings: Homo sapiens;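 note: growth inhibition of human NCI-H716 cells, measured by a cell viability assay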
Description: SANGER: Inhibition of human NCI-H716 cell growth in a cell viability assay.

NCI-H719 = assay: cells; settings: Homo sapiens;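 note: growth inhibition of the cultured cell line, read out with a viability assay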
Description: SANGER: Inhibition of human NCI-H719 cell growth in a cell viability assay.

OPM-2 = assay: cells; settings: Homo sapiens;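 note: growth of OPM-2 cells measured with a viability assay, IC50 for suppression of proliferation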
Description: SANGER: Inhibition of human OPM-2 cell growth in a cell viability assay.

P31-FUJ = assay: cells; settings: Homo sapiens;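 note: growth inhibition of P31-FUJ cells, read out with a viability assay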
Description: SANGER: Inhibition of human P31-FUJ cell growth in a cell viability assay.

RL95-2 = assay: cells; settings: Homo sapiens;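 note: RL95-2 growth inhibition determined through a cell viability readout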
Description: SANGER: Inhibition of human RL95-2 cell growth in a cell viability assay.

RPMI 8402 = assay: SANGER: Inhibition of human RPMI-8402 cell growth in a cell viability assay.
SCC-3 = assay: cells; settings: Homo sapiens;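 note: cell viability assay measuring inhibition of SCC-3 cell growth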
Description: SANGER: Inhibition of human SCC-3 cell growth in a cell viability assay.

SIG-M5 = assay: cells; settings: Homo sapiens;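 note: cell viability assay read-out, measuring how strongly growth of cultured human SIG-M5 cells is inhibited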
Description: SANGER: Inhibition of human SIG-M5 cell growth in a cell viability assay.

SKM-1 = assay: SANGER: Inhibition of human SKM-1 cell growth in a cell viability assay.
SR = assay: cells; settings: Homo sapiens
Description: SANGER: Inhibition of human SR cell growth in a cell viability assay.

ARH-77 = assay: cells; settings: Homo sapiens;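 note: growth inhibition of ARH-77 cells, read out by a cell viability assay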
Description: SANGER: Inhibition of human ARH-77 cell growth in a cell viability assay.

BOKU = assay: cells; settings: Homo sapiens;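 note: growth inhibition of the human BOKU cell line, read out by a cell viability assay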
Description: SANGER: Inhibition of human BOKU cell growth in a cell viability assay.

THP-1 = assay: cells; settings: Homo sapiens;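 note: growth inhibition of THP-1 cells, read out via a cell viability assay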
Description: SANGER: Inhibition of human THP-1 cell growth in a cell viability assay.

TUR = assay: cells; settings: Homo sapiens;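 note: growth inhibition of human TUR cells, read out with a cell viability assay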
Description: SANGER: Inhibition of human TUR cell growth in a cell viability assay.

CHP-126 = assay: cells; settings: Homo sapiens
Description: SANGER: Inhibition of human CHP-126 cell growth in a cell viability assay.

Compound | pIC50 (EB2) | pIC50 (LC-1F) | pIC50 (LC4-1) | pIC50 (MONO-MAC-6) | pIC50 (NB1) | pIC50 (NCCIT) | pIC50 (NCI-H128) | pIC50 (NCI-H187) | pIC50 (NCI-H1963) | pIC50 (NCI-H2107) | pIC50 (NCI-H2171) | pIC50 (NCI-H2196) | pIC50 (NCI-H322M) | pIC50 (NCI-H716) | pIC50 (NCI-H719) | pIC50 (OPM-2) | pIC50 (P31-FUJ) | pIC50 (RL95-2) | pIC50 (RPMI 8402) | pIC50 (SCC-3) | also measured
CN1CCN(CCOc2cc(OC3CCOCC3)c3c(Nc4c(Cl)ccc5c4OCO5)ncnc3c2)CC1 [SARACATINIB] | < 5.70 | < 5.70 | < 5.70 | < 5.70 | < 5.70 | 6.14 | < 5.70 | < 5.70 | < 5.70 | < 5.70 | < 5.70 | < 5.70 | < 5.70 | < 5.70 | < 5.70 | < 5.70 | < 5.70 | 5.78 | < 5.70 | < 5.70 | pIC50 (SIG-M5): < 5.70; pIC50 (SKM-1): < 5.70; pIC50 (SR): < 5.70; pIC50 (ARH-77): < 5.70; pIC50 (BOKU): < 5.70; pIC50 (THP-1): < 5.70; pIC50 (TUR): < 5.70; pIC50 (CHP-126): < 5.70
CCC(=O)N1CCN(c2ccc(-n3c(=O)ccc4cnc5ccc(-c6cnc7ccccc7c6)cc5c43)cc2C(F)(F)F)CC1 [TORIN1] | < 5.92 | 7.40 | 7.06 | 7.14 | 6.55 | 6.27 | < 5.92 | 6.32 | 6.20 | 5.93 | < 5.92 | 6.48 | < 5.92 | < 5.92 | 6.01 | 7.89 | < 5.92 | 8.49 | 7.11 | 6.89 | pIC50 (SIG-M5): 7.05; pIC50 (SKM-1): < 5.92; pIC50 (SR): 7.20; pIC50 (ARH-77): 7.14; pIC50 (BOKU): 6.43; pIC50 (THP-1): < 5.92; pIC50 (TUR): < 5.92; pIC50 (CHP-126): < 5.92
Cc1cc(Nc2cc(N3CCN(C)CC3)nc(Sc3ccc(NC(=O)C4CC4)cc3)n2)n[nH]1 [TOZASERTIB] | < 5.70 | < 5.70 | < 5.70 | 7.10 | < 5.70 | < 5.70 | < 5.70 | 6.19 | 5.77 | < 5.70 | < 5.70 | < 5.70 | < 5.70 | < 5.70 | < 5.70 | < 5.70 | < 5.70 | 6.39 | < 5.70 | < 5.70 | pIC50 (SIG-M5): 6.78; pIC50 (SKM-1): < 5.70; pIC50 (SR): 6.61; pIC50 (ARH-77): < 5.70; pIC50 (BOKU): < 5.70; pIC50 (THP-1): < 5.70; pIC50 (TUR): < 5.70; pIC50 (CHP-126): < 5.70
